Source: a compilation of properties of binary mixtures (doi:10.1016/j.molliq.2018.05.059)

Assay: xn = mol fraction of the nth substance listed
Details: 298 K, 101 kPa

CC(O)C(=O)[O-].CCC[N+]1(C)CCN(C)CC1 + CC#N
Details | electrical conductivity [S/m]
x2 = 0.808 | 1.52
x2 = 0.835 | 1.72
x2 = 0.856 | 1.83
x2 = 0.872 | 1.91
x2 = 0.89 | 1.99
x2 = 0.898 | 1.99
x2 = 0.907 | 2.04
x2 = 0.918 | 2.05
x2 = 0.927 | 2.05
x2 = 0.939 | 2.01
x2 = 0.945 | 1.96

CC(=O)[O-].CCC[N+]1(C)CCN(C)CC1 + CC#N
Details | electrical conductivity [S/m]
x2 = 0.806 | 1.82
x2 = 0.819 | 1.89
x2 = 0.832 | 1.95
x2 = 0.843 | 1.98
x2 = 0.852 | 1.98
x2 = 0.859 | 2.04
x2 = 0.874 | 2.01
x2 = 0.884 | 2.04
x2 = 0.895 | 2.06
x2 = 0.902 | 2.06
x2 = 0.919 | 2.04
x2 = 0.931 | 2.01
x2 = 0.937 | 1.94
x2 = 0.95 | 1.85
